Experimental data from patent publication US10758609B2, “Cross-reactive T-cell epitopes of HIV, SIV, and FIV for vaccines in humans and cats” (priority 2015, dated 2020).

Assays:
[1] = test system: CD8^+ T cells from HIV^+ subjects; assay: FACS-based intracellular staining (ICS) for cytolysin (perforin) and cytotoxins (GrzA, GrzB) in CD8+ T cells; conditions: HIV+ human subjects; for Cyto: CD8+ T-cell cytotoxins (perforin, GrzA & B), frequency of responders: FIV epitope peptide; for Cyto (cytolysin/cytotoxin production), frequency of responders: FIV peptides
Procedure, shortened: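 Peptides tested with PBMC and T cells from HIV^+ subjects, some on ART. CFSE proliferation positive at ≥2% CFSE^low CD4^+ or CD8^+ T cells; intracellular perforin, granzyme A and B staining by FACS positive at ≥0.2%.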

[2] = test system: PBMC from cat SBA; assay type: cell-based; conditions: PBMC of cat SBA, 14 wk post-challenge boost

Question: For KKKSGKWRMLIDFRV [FRT3-3], which “Cyto: CD8+ T-cell cytotoxins (perforin, GrzA & B), frequency of responders” value [1] is on record?
Answer: Its value is “++++ (>54% (++++))”.

Question: What about the “Cyto (cytolysin/cytotoxin production), frequency of responders” value [1] of the same sequence?
Answer: Its value is “++++ (>54% (++++))”.

Question: For PTDMATLIMAAPGCA [Fp4-3], which “GrzA mRNA” value [2] is on record?
Answer: Its value is “low”.

Question: What about the “GrzB mRNA” value [2] of the same sequence?
Answer: The value was “no detectable levels”.

Question: What about the “IFNγ mRNA” value [2] of the same sequence?
Answer: The value was “high”.

Question: What about the “IL2 mRNA” value [2] of the same sequence?
Answer: The value was “low”.

Question: And the “perforin mRNA” value [2]?
Answer: The value was “no detectable levels”.

Question: What does the source list for WRMLIDFRVLNKL [FRT3-4]?
Answer: Cyto: CD8+ T-cell cytotoxins (perforin, GrzA & B), frequency of responders [1]: ++++ (>54% (++++)); Cyto (cytolysin/cytotoxin production), frequency of responders [1]: ++++ (>54% (++++))
